This note sets out measurements from paper PMC9905117, “Characterization of the metabolism of eupalinolide A and B by carboxylesterase and cytochrome P450 in human liver microsomes” (Frontiers in Pharmacology, 2023).

The assay relates to Carboxylesterase. Briefly: Inhibition of EA or EB hydrolysis in HLMs by carboxylesterase inhibitor BNPP. The assay is classed as biochemical, human. The following applies: HLMs 0.5 g/L, no NADPH, 30 min. How it is done: To determine ideal BNPP concentration for inhibiting carboxylesterase activity in HLMs, an incubation system consisting of 100 mM phosphate buffer solution at pH 7.4, HLMs (0.5 g/L), MgCl2 (5 mM) and BNPP (0.5, 1, 1.5 and 2 mM) was prepared ([Zhuang et al., 2014]; [Wang Y. Q. et al., 2020]; [Zhang et al., 2022d]; [Jin et al., 2022]). The mixture was preincubated at 37°C for 5 min and the metabolic reaction was initiated by addition of EA or EB (at a final concentration of 10 μM). Positive control groups lacked BNPP while negative control groups contained deactivated HLMs. […] The above reaction was terminated by adding 200 µl of ice-cold stop solution at 30 min. Sample preparation and evaluation were as described in 2.2.1. All incubations were performed in triplicate. The percentage of EA or EB hydrolysis inhibition was calculated using the following Eq. 1: Inhibition%=1−∆substrate in the presence of chemical inhibitor/∆substrate in the absence of chemical inhibitor×100% (1)

In the case of `O=[N+]([O-])c1ccc(OP(=O)(O)Oc2ccc([N+](=O)[O-])cc2)cc1` [BNPP, bis(4-nitrophenyl) phosphoricacid], where the note is “BNPP 0.5 mM, EA 10 μM”, the “inhibitory percentage of EA hydrolysis” value worked out at 87.38%. Also, the “inhibitory rate of EB hydrolysis” value (BNPP 2 mM, EB 10 μM) is on record as 86.11%.
